Tests used:
[1] = system: NQO1 mRNA in BEAS-2B cells; experiment: Beas2B NQO1 mRNA cell based assay; set-up: species or system human; details: Homo sapiens, BEAS-2B, 24 h, 24 h compound treatment, increase in NQO1 mRNA vs vehicle (0.1% DMSO), read-out: EC50
Procedure: Beas2B NQO1 mRNA Cell Based Assay
The up regulation of the NRF2 mediated gene NAD(P)H:quinone acceptor oxidoreductase 1 (NQO1) was measured using the following assay method: BEAS-2B cells (ATCC CRL-9609) were plated in 96-well clear plates at 20,000 cells/well in 75 μL of cell culture media and incubated overnight (37° C., 5% CO2). On day 2, 25 μL of compound or controls were added to the cells for 24 h. On day 3, the medium was aspirated from the plate and the Cells-to-CT™ 1-Step TaqMan® Kit (Ambion A25603) was used to perform expression analysis directly from cultured cells without RNA purification according to the manufacturer's instructions.
Briefly, cells were washed with ice cold PBS and 22.5 μL of room-temperature DNase/Lysis solution was added to the cells and incubated at room temperature for 5 minutes. To stop the reaction, 2.25 μL of stop solution was added to the cell lysate. The samples were diluted 1:5 using nuclease free water and 2.5 μL transferred into the PCR plate. Real-time PCR was performed using the C-1000 Thermal Cycler (Bio-Rad) using human beta actin as the internal control. The cDNA was amplified with a specific primer for NQO1 using the 1-step RT-PCR master mix (Ambion Cells-to-CT™ 1-Step TaqMan® Kit A25603). The primers/probes sets that were used for amplification of cDNA were obtained from TaqMan Gene Expression Assays (Applied Biosystems). The comparative CT (ΔΔCT) relative quantification method was used to calculate the relative mRNA level of the target gene NQO1 as described in the Applied Biosystems Chemistry Guide.

[2] = biological target: human KEAP1 (N-term, residues 321-609) (Homo sapiens, UniProt Q14145); experiment: biochemical;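 note: fluorescence polarization competition assay of Kelch domain binding to NRF2, 12-point 1:3 dilution series from 10 µM, read after 1 h at room temperature, floor 10 nM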
human KEAP1 (N-term, residues 321-609), sequence (Q14145 321-609): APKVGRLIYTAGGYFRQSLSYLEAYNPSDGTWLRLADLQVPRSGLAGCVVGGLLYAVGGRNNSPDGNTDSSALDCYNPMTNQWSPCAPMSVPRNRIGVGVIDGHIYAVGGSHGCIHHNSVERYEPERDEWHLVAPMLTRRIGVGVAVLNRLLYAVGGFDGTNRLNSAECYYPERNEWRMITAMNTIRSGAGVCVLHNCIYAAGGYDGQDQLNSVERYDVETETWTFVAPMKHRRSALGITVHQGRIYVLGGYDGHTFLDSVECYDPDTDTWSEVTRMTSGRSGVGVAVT

IC50 [2] [nM]	SMILES	EC50 [1] [nM]
10	Cn1cnnc1COc1ccc(Br)c2c1[C@@H](CN1Cc3ccccc3C1=O)N(C(=O)[C@@H]1CCCC[C@@H]1C(=O)O)CC2 [Example 23, (1S,2R)-2-((S)-5-bromo-8-((4-methyl-4H-1,2,4-triazol-3-yl)methoxy)-1-((1-oxoisoindolin-2-yl)methyl)-1,2,3,4-tetrahydroisoquinoline-2-carbonyl)cyclohexane-1-carboxylic acid]	33
9.1	Cc1nc(COc2ccc(Br)c3c2[C@@H](CN2Cc4ccccc4C2=O)N(C(=O)[C@@H]2CCCC[C@@H]2C(=O)O)CC3)no1 [Example 24, (1S,2R)-2-((S)-5-Bromo-8-((5-methyl-1,2,4-oxadiazol-3-yl)methoxy)-1-((1-oxoisoindolin-2-yl)methyl)-1,2,3,4-tetrahydroisoquinoline-2-carbonyl)cyclohexane-1-carboxylic acid]	41
15	Cn1cnc(COc2ccc(Br)c3c2[C@@H](CN2Cc4ccccc4C2=O)N(C(=O)[C@@H]2CCCC[C@@H]2C(=O)O)CC3)c1 [Example 25, (1S,2R)-2-((S)-5-Bromo-8-((1-methyl-1H-imidazol-4-yl)methoxy)-1-((1-oxoisoindolin-2-yl)methyl)-1,2,3,4-tetrahydroisoquinoline-2-carbonyl)cyclohexane-1-carboxylic acid 2,2,2-trifluoroacetic acid]	150
14	Cc1cc(COc2ccc(Br)c3c2[C@@H](CN2Cc4ccccc4C2=O)N(C(=O)[C@@H]2CCCC[C@@H]2C(=O)O)CC3)no1 [Example 26, (1S,2R)-2-((S)-5-Bromo-8-((5-methylisoxazol-3-yl)methoxy)-1-((1-oxoisoindolin-2-yl)methyl)-1,2,3,4-tetrahydroisoquinoline-2-carbonyl)cyclohexane-1-carboxylic acid]	58
8.3	CCn1ncc(COc2ccc(Br)c3c2[C@@H](CN2Cc4ccccc4C2=O)N(C(=O)[C@@H]2CCCC[C@@H]2C(=O)O)CC3)n1 [Example 27, (1S,2R)-2-((S)-5-bromo-8-((2-ethyl-2H-1,2,3-triazol-4-yl)methoxy)-1-((1-oxoisoindolin-2-yl)methyl)-1,2,3,4-tetrahydroisoquinoline-2-carbonyl)cyclohexane-1-carboxylic acid]	18
14	Cc1cnc(COc2ccc(Br)c3c2[C@@H](CN2Cc4ccccc4C2=O)N(C(=O)[C@@H]2CCCC[C@@H]2C(=O)O)CC3)s1 [Example 28, (1S,2R)-2-((S)-5-Bromo-8-((5-methylthiazol-2-yl)methoxy)-1-((1-oxoisoindolin-2-yl)methyl)-1,2,3,4-tetrahydroisoquinoline-2-carbonyl)cyclohexane-1-carboxylic acid]	93
16	Cn1ncnc1COc1ccc(Br)c2c1[C@@H](CN1Cc3ccccc3C1=O)N(C(=O)[C@@H]1CCCC[C@@H]1C(=O)O)CC2 [Example 29, (1S,2R)-2-((S)-5-Bromo-8-((1-methyl-1H-1,2,4-triazol-5-yl)methoxy)-1-((1-oxoisoindolin-2-yl)methyl)-1,2,3,4-tetrahydroisoquinoline-2-carbonyl)cyclohexane-1-carboxylic acid]	100
9.2	O=C(O)[C@H]1CCCC[C@H]1C(=O)N1CCc2c(Br)ccc(OCc3cccnn3)c2[C@H]1CN1Cc2ccccc2C1=O [Example 30]	17
4.5	O=C(O)[C@H]1CCCC[C@H]1C(=O)N1CCc2c(Br)ccc(OCc3cn(CC4CC4)nn3)c2[C@H]1CN1Cc2ccccc2C1=O [Example 31, (1S,2R)-2-((S)-5-bromo-8-((1-(cyclopropylmethyl)-1 1,2,3-triazol-4-yl)methoxy)-1-((1-oxoisoindolin-2-yl)methyl)-1,2,3,4-tetrahydroisoquinoline-2-carbonyl)cyclohexane-1-carboxylic acid]	8.5
6	O=C(O)[C@H]1CCCC[C@H]1C(=O)N1CCc2c(Br)ccc(OCc3ccn4ccnc4c3)c2[C@H]1CN1Cc2ccccc2C1=O [Example 32]	75

Reference: patent US12098148B2, “Therapeutic compounds” (C4X Discovery Limited, priority 2018, dated 2024)
